Drawing on ChEMBL document CHEMBL1154921, “Phenylpropanoyl esters from Horseweed (Conyza canadensis) and their inhibitory effects on catecholamine secretion” (J Nat Prod, 2010), this text covers IC50 for 1 compound.

Test [1] can be described thus: Inhibition of acetylcholine-induced catecholamine secretion in bovine chromaffin cells after 10 mins by HPLC coupled electrochemical detector. The settings on record: Bos taurus. In kind it is functional, cell-based.
The nature of test [2]: Inhibition of acetylcholine-induced calcium flux in calcium 4 reagent loaded bovine chromaffin cells at 1 to 100 uM. The test is classed as functional. The settings on record: Bos taurus. In general terms: Calcium flux is commonly read through the fluorescence of an indicator in the cells.

Take `COC(=O)[C@]12C[C@@H](OC(=O)/C=C/c3ccc(O)c(OC)c3)[C@@H](O)[C@H](O1)[C@@H](COC(=O)/C=C/c1ccc(O)c(O)c1)O2` (relative stereo): the IC50 (in general, the concentration at which inhibition is half-maximal) in test [1] turned out to be 94.7 µM; in test [2] it was 59.8 µM.
